Assay [1] has as its target T1, FtAlkB (Fontimonas thermophila, UniProt A0A1I2KHB9).
T1 construct: gene SAMN04488120_1209; residues 4-399, codon optimized, pRSF vector, E. coli BL21 (DE3), 3C protease digestion (tag cut), DDM-solubilized; 45 kD; cryo-EM with nanobody AP32; lysate assays with AlkG and AlkT as redox partners
T1 sequence (A0A1I2KHB9 4-399): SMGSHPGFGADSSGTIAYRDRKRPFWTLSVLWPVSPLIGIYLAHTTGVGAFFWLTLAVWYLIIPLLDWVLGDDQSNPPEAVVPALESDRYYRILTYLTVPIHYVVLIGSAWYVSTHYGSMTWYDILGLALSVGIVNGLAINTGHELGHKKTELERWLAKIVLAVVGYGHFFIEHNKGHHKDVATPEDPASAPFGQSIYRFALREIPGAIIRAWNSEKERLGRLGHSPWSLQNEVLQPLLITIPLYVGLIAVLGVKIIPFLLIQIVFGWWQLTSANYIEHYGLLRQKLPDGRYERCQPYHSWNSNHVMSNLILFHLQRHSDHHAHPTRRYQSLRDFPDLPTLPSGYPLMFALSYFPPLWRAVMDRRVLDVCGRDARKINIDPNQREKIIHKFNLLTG
The experiment in a line: GC-MS alkane hydroxylation assay, purified enzyme. Format: biochemical. The settings on record: purified AlkG, maize ferredoxin reductase, NADPH; 37 °C.

The target of assay [2] is T2, Fontimonas thermophila alkane monooxygenase AlkB (FtAlkB), amino acids 4-399 (Fontimonas thermophila).
T2 construct: Alkane monooxygenase AlkB of Fontimonas thermophila, amino acids 4-399, codon optimized, in pRSF vector; Membrane protein kept in DDM (0.02% in SEC buffer); source: E. coli BL21 (DE3), solubilized in 1% DDM, purified (cobalt resin, 3C protease digestion, SEC)
T2 chain: T1 sequence (A0A1I2KHB9 4-399)
Nature of the assay: cryo-EM structure; FtAlkB-nanobody AP32 complex in 20 mM HEPES pH 7.4, 150 mM NaCl, 0.02% DDM; single-particle cryo-EM, 3.59 Å for FtAlkB-nanobody (3.45 Å with a mask on FtAlkB only). The settings on record: both partners purified.

As to `CCCCCCCC` [octane], the “GC-MS alkane hydroxylation assay, purified enzyme” value in assay [1] is recorded as “FtAlkB displayed robust alkane hydroxylase activities on a model alkane octane”.

B1: Nanobody AP32 (anti-FtAlkB nanobody) (VHH)
VHH: QVQLQESGGGLVQAGGSLRLSCAASGTISRYWTMGWYRQAPGKERELVAGISEGGSTNYADSVKGRFTISRDNAKNTVYLQMNSLKPEDTAVYYCAVTYRGPWFNRDPHYYWGQGTQVTVSS
notes: Synthetic nanobody from a library after three runs of selection; the model was started from the nanobody of PDB 7SL8 with the CDRs rebuilt, so 7SL8 is not this nanobody; also called FtAlkB-specific nanobody; source: E. coli BL21 (DE3), purified
Consider B1, for which the binding result in assay [2] was “binds”.
